From PubChem BioAssay AID256 (DTP/NCI, 2004)
Several values for one entry are separate records, joined by “and”; a condition that tells them apart may be missing. Equal values may be shown once. Inconclusive results and toxic doses are left out. How the source made its calls: active means survival T/C of 150% or more; inactive means T/C below 125% in these data.

System: CD2F1 mice, L1210 leukemia ip, survival T/C
Experiment: NCI In Vivo Anticancer Drug Screen. Data for tumor model L1210 Leukemia (intraperitoneal) in CD2F1 (CDF1) mice
Details: endpoint: mean survival time, higher = longer survival
Summary of the method: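 Read-out first: treated-group measurement over vehicle-control measurement, expressed as a ratio. Animals bore a transplanted tumor line and were dosed with compound or vehicle.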

[1] = dose: 25.0 mg/kg/injection, schedule: Q01DX009 (ip), vehicle: saline
[2] = dose: 50.0 mg/kg/injection, schedule: Q01DX009 (ip), vehicle: saline
[3] = dose: 100.0 mg/kg/injection, schedule: Q01DX001 (ip), vehicle: saline
[4] = dose: 100.0 mg/kg/injection, schedule: Q01DX009 (ip), vehicle: saline
[5] = dose: 200.0 mg/kg/injection, schedule: Q01DX001 (ip), vehicle: saline
[6] = dose: 200.0 mg/kg/injection, schedule: Q01DX009 (ip), vehicle: saline
[7] = dose: 400.0 mg/kg/injection, schedule: Q01DX001 (ip), vehicle: saline
[8] = dose: 100.0 mg/kg/injection, schedule: Q04DX003 (ip), vehicle: saline with Tween-80
[9] = dose: 200.0 mg/kg/injection, schedule: Q04DX003 (ip), vehicle: saline with Tween-80
[10] = dose: 400.0 mg/kg/injection, schedule: Q04DX003 (ip), vehicle: saline with Tween-80
[11] = dose: 100.0 mg/kg/injection, schedule: Q01DX009 (ip), vehicle: saline with Tween-80
[12] = dose: 200.0 mg/kg/injection, schedule: Q01DX009 (ip), vehicle: saline with Tween-80
[13] = dose: 400.0 mg/kg/injection, schedule: Q01DX009 (ip), vehicle: saline with Tween-80
[14] = dose: 100.0 mg/kg/injection, schedule: Q01DX001 (ip), vehicle: saline with Tween-80
[15] = dose: 100.0 mg/kg/injection, schedule: Q04DX002 (ip), vehicle: saline with Tween-80
[16] = dose: 200.0 mg/kg/injection, schedule: Q01DX001 (ip), vehicle: saline with Tween-80
[17] = dose: 400.0 mg/kg/injection, schedule: Q01DX001 (ip), vehicle: saline with Tween-80

Measured: T/C

O=S(=O)(O)c1ccc(-c2ccc(S(=O)(=O)O)cc2)cc1
inactive: dose: 6.3 mg/kg/injection, schedule: Q01DX009 (ip), vehicle: saline 104 % of control | dose: 6.3 mg/kg/injection, schedule: Q04DX003 (ip), vehicle: saline 102 % of control | dose: 12.5 mg/kg/injection, schedule: Q01DX001 (ip), vehicle: saline 101 % of control | dose: 12.5 mg/kg/injection, schedule: Q01DX009 (ip), vehicle: saline 104 % of control | dose: 12.5 mg/kg/injection, schedule: Q04DX003 (ip), vehicle: saline 100 % of control | dose: 25.0 mg/kg/injection, schedule: Q01DX001 (ip), vehicle: saline 103 % of control | [1] 101 % of control | dose: 25.0 mg/kg/injection, schedule: Q04DX003 (ip), vehicle: saline 100 % of control | dose: 50.0 mg/kg/injection, schedule: Q01DX001 (ip), vehicle: saline 101 % of control | [2] 104 % of control | dose: 50.0 mg/kg/injection, schedule: Q04DX003 (ip), vehicle: saline 93 % of control | [3] 100 % of control and 108 % of control | [4] 106 % of control | dose: 100.0 mg/kg/injection, schedule: Q04DX003 (ip), vehicle: saline 103 % of control | [5] 100 % of control and 105 % of control | [6] 98 % of control | dose: 200.0 mg/kg/injection, schedule: Q04DX003 (ip), vehicle: saline 100 % of control | [7] 104 % of control and 107 % of control

CCCCCCCCCCCCCCCC(=O)N(CCCN(C)C)CCCN(CCCN(C)C)C(=O)CCCCCCCCCCCCCCC
inactive: dose: 1.56 mg/kg/injection, schedule: Q01DX009 (ip), vehicle: water 101 % of control | dose: 3.13 mg/kg/injection, schedule: Q01DX009 (ip), vehicle: water 98 % of control | dose: 6.25 mg/kg/injection, schedule: Q01DX009 (ip), vehicle: water 95 % of control | dose: 12.5 mg/kg/injection, schedule: Q01DX009 (ip), vehicle: water 94 % of control and 95 % of control | dose: 25.0 mg/kg/injection, schedule: Q01DX009 (ip), vehicle: water 95 % of control

O=C(Nc1ccccc1)OC1CCCCC1
inactive: [8] 101 % of control | [9] 100 % of control | [10] 97 % of control

CCCCC(CC)(CO)C(=O)NN (configuration not stated)
inactive: [8] 97 % of control | [9] 100 % of control | [10] 97 % of control

Nc1nc(N)c(N=Nc2cccc(S(=O)(=O)O)c2)c(N)n1
inactive: [8] 107 % of control | [9] 101 % of control | [10] 101 % of control

CCCCCCCCCCCCCCCCCCN=C(N)N
inactive: dose: 100.0 mg/kg/injection, schedule: Q01DX001 (ip), vehicle: Klucel (hydroxypropylcellulose) (HPC) 103 % of control | dose: 200.0 mg/kg/injection, schedule: Q01DX001 (ip), vehicle: Klucel (hydroxypropylcellulose) (HPC) 96 % of control | dose: 400.0 mg/kg/injection, schedule: Q01DX001 (ip), vehicle: Klucel (hydroxypropylcellulose) (HPC) 88 % of control

CC(=O)NCCCCCCNC(C)=O
inactive: [1] 96 % of control | [2] 100 % of control | [4] 100 % of control | [6] 94 % of control | dose: 400.0 mg/kg/injection, schedule: Q01DX009 (ip), vehicle: saline 100 % of control | dose: 800.0 mg/kg/injection, schedule: Q01DX009 (ip), vehicle: saline 93 % of control

O=C(Nc1ccc(Cl)c(Cl)c1)c1cc(Cl)ccc1O
inactive: [11] 102 % of control | [12] 100 % of control | [13] 105 % of control

O=C(COc1ccccc1)NC(=S)Nc1nccs1
inactive: dose: 25.0 mg/kg/injection, schedule: Q04DX003 (ip), vehicle: saline with Tween-80 87 % of control | dose: 50.0 mg/kg/injection, schedule: Q04DX003 (ip), vehicle: saline with Tween-80 88 % of control and 103 % of control | [14] 97 % of control | [11] 93 % of control and 102 % of control | [15] 98 % of control | [8] 88 % of control and 97 % of control | [16] 95 % of control | [12] 93 % of control and 104 % of control | dose: 200.0 mg/kg/injection, schedule: Q04DX002 (ip), vehicle: saline with Tween-80 102 % of control | [9] 101 % of control and 108 % of control | [17] 107 % of control | [13] 111 % of control

Nc1ccc([N+](=O)[O-])cn1
inactive: dose: 75.0 mg/kg/injection, schedule: Q01DX009 (ip), vehicle: saline with Tween-80 94 % of control | [8] 107 % of control | dose: 150.0 mg/kg/injection, schedule: Q01DX009 (ip), vehicle: saline with Tween-80 87 % of control | [9] 103 % of control | dose: 300.0 mg/kg/injection, schedule: Q01DX009 (ip), vehicle: saline with Tween-80 93 % of control | [10] 96 % of control

S=C(NC1CCCCC1)N1CCC(CCCC2CCN(C(=S)NC3CCCCC3)CC2)CC1
inactive: [8] 87 % of control | [9] 94 % of control | [10] 102 % of control

CCOC(=O)n1cnc2ncnc(SC)c21
inactive: dose: 50.0 mg/kg/injection, schedule: Q01DX001 (ip), vehicle: other 95 % of control | dose: 50.0 mg/kg/injection, schedule: Q01DX009 (ip), vehicle: other 102 % of control | dose: 50.0 mg/kg/injection, schedule: Q01DX009 (ip), vehicle: saline with Tween-80 109 % of control | dose: 100.0 mg/kg/injection, schedule: Q01DX001 (ip), vehicle: other 106 % of control | dose: 100.0 mg/kg/injection, schedule: Q01DX009 (ip), vehicle: other 102 % of control | [11] 101 % of control | dose: 200.0 mg/kg/injection, schedule: Q01DX001 (ip), vehicle: other 102 % of control | dose: 200.0 mg/kg/injection, schedule: Q01DX009 (ip), vehicle: other 123 % of control | [12] 91 % of control | dose: 400.0 mg/kg/injection, schedule: Q01DX001 (ip), vehicle: other 108 % of control | dose: 400.0 mg/kg/injection, schedule: Q01DX009 (ip), vehicle: other 121 % of control

O=C(O)C(=O)Cc1ccc2c(c1)OCO2
inactive: [3] 98 % of control | [5] 104 % of control | [7] 98 % of control

CCCCC(CCC)OC(=O)Nc1cccc2ccccc12 (configuration not stated)
inactive: [14] 93 % of control | [16] 93 % of control | [17] 93 % of control

C=CC(=O)c1ccccc1
inactive: [15] 111 % of control

CCNC1=CC(=O)CC(C)(C)C1
inactive: dose: 75.0 mg/kg/injection, schedule: Q01DX001 (ip), vehicle: saline 106 % of control | dose: 150.0 mg/kg/injection, schedule: Q01DX001 (ip), vehicle: saline 101 % of control | dose: 300.0 mg/kg/injection, schedule: Q01DX001 (ip), vehicle: saline 109 % of control

CC1CC(C)(C)NC(CCC2CCCCC23OCCO3)O1 (configuration not stated)
inactive: [14] 107 % of control | [16] 105 % of control | [17] 97 % of control

N=C(N)c1cn(C2OC(CO)C(O)C2O)c2ncnc(N)c12 (configuration not stated)
inactive: dose: 0.63 mg/kg/injection, schedule: Q01DX009 (ip), vehicle: saline 123 % of control | dose: 2.5 mg/kg/injection, schedule: Q01DX009 (ip), vehicle: saline 124 % of control

CCOC(=O)c1cn[nH]c1/N=C/N(C)C
inactive: [14] 98 % of control | [16] 104 % of control | [17] 106 % of control

O=C(CNC(=O)Nc1cccc(Cl)c1)N/N=C/c1ccccc1Cl
inactive: [11] 106 % of control | [12] 109 % of control | [13] 112 % of control
